Laboratory results from patent US12325676B2, “Cationic lipid compound and composition for delivery of nucleic acids and use thereof” (Shenzhen Rhegen Biotechnology Co., Ltd., priority 2022, dated 2025).

Key:
[1] = Encapsulation rate of mRNA-loaded lipid nanoparticles (Ribogreen kit); assay type: physicochemical
Procedure: (§1) Luciferase mRNA was diluted in 10-100 mM citrate buffer at pH 4.0; the lipid components (cationic lipids shown in the present disclosure: DSPC:cholesterol:PEG lipids (DMG-PEG2000)) were dissolved in ethanol at a molar ratio of 50:10:38.5:1.5.
(§2) 3 mL of a mRNA buffer and 1 mL of a lipid solution were loaded into two 5 mL syringes respectively, and the syringes were installed on a microfluidic syringe pump. Chips were connected to the syringes and syringe pump flow rate was set. Clicking the start button of the syringe pump caused injection into the chip at a flow rate ratio of 3:1. Under observation of the color of the product at the exit of the chip, after discarding the first 5 milky white droplets (about 100 μL), the back-end sample was collected into an EP tube. The collected product was placed in a dialysis bag and dialyzed for 6 h (MWCO: 100 KDa) in 10 mM PBS (pH 7.4) intervals. Subsequently, after being concentrated by ultrafiltration to the desired concentration, the lipid nanoparticles were filtered through a 0.22 μm sterile filter and then stored at 4° C.
(§3) Tests were performed to calculate the encapsulation rate of the products according to the instructions of Ribogreen kit. Particle size and polydispersity index (PDI) detection as well as zeta potential analysis was performed on a Malvern Zetasizer nano instrument using standard assays.

[2] = Particle size, PDI and zeta potential of mRNA-loaded lipid nanoparticles (Malvern Zetasizer nano); assay type: physicochemical
Procedure: as §1, §2, §3

[3] = system: BALB/c mice; assay: In vivo expression of luciferase mRNA delivered by LNP, tail intravenous injection, small animal imaging; conditions: Table 3, 5 μg mRNA, female BALB/c mice, DLin-MC3-DMA = 100
Procedure: LUC-mRNA-lipid nanoparticles containing 5 μg mRNA (see SEQ ID NO: 1 in the Patent Application Publication CN114380724A for the corresponding nucleotide sequence of LUC-mRNA) were injected via tail intravenous injection in 6-8 week old female BALB/c mice, prepared as in Example 19. 100 μg of D-Luciferin Potassium Salt was injected via tail intravenous injection into the mice at specific time points and assayed using the PerkinElmer Small Animal Imaging System. Fluc is commonly used in mammalian cell cultures to measure gene expression and cell viability, and it emits biological fluorescent light in the presence of the substrate […]. The basic characteristics of the mRNA used include ARCA cap structure, polyA tail length of 120 nt, and complete substitution of pseudouridine.
The effect of delivering luciferase mRNA using more cationic lipids were validated according to the methods of Example 20 and Example 21.

[4] = system: BALB/c mice; assay: In vivo EPO protein expression after tail i.v. injection of EPO-mRNA LNP, serum ELISA; conditions: 6 hours after tail i.v. injection of 20 μg EPO-mRNA-lipid nanoparticles, female Balb/c mice
Procedure: In the example, the effects of in vivo transfection of erythropoietin (EPO) by various cationic liposomes were compared. Nanoparticles were prepared in the same manner as in Example 20, and the nucleotide sequence corresponding to the EPO mRNA used is given in CN114380724B, SEQ ID NO:2. After preparation, 20 μg of EPO-mRNA-lipid nanoparticles were injected via tail intravenous injection in 6-8 week female Balb/c mice. 6 hours later the mice were subjected to blood sampling from the eye frame. After centrifugation to separate the serum, EPO protein expression was determined using ELISA. The basic characteristics of the mRNA used include ARCA cap structure, polyA tail length of 100-120 nt, and complete substitution of pseudouridine.

[5] = system: SD rats; assay: Abnormal toxicity of cationic lipid nanoparticles, tail i.v. injection, liver and kidney function; assay type: in vivo; conditions: EPO mRNA LNP, 5 mg/kg tail intravenous injection, female SD rats
Procedure: The nanoparticles prepared in Example 27 were used in this experiment. The nanoparticles were injected via tail intravenous injection at a dose of 5 mg/kg in female SD rats weighing 200-250 g. The […] in the control group were injected with a corresponding volume of normal saline. […] Blood samples were collected at 120 h after injection, and alanine transaminase (ALT), aspartate aminotransferase (AST), urea nitrogen (BUN), and serum creatinine (SCR) were measured using a fully automated biochemistry instrument as the evaluation indexes of hepatic and renal functions.

[6] = Encapsulation rate of mRNA-loaded lipid nanoparticles (Ribogreen kit); assay type: physicochemical; conditions: Table 4 batch; EPO mRNA LNP prepared as Example 20
[7] = Particle size, PDI and zeta potential of mRNA-loaded lipid nanoparticles (Malvern Zetasizer nano); assay type: physicochemical; conditions: Table 4 batch; EPO mRNA LNP prepared as Example 20
[8] = system: BALB/c mice; assay: In vivo expression of luciferase mRNA delivered by LNP, lung nebulization; conditions: LUC-mRNA LNP, 5 μg mRNA, compared with Lipid M and SM-102
Procedure: LUC-mRNA-lipid nanoparticles containing 5 μg mRNA were administrated via lung nebulization in 6-8 week old BALB/c mice, prepared as in Example 19. 100 μg of D-Luciferin Potassium Salt was injected via tail intravenous injection into the mice at specific time points and assayed using the PerkinElmer Small Animal Imaging System.

[9] = Table 1, Luciferase mRNA LNP, cationic lipid:DSPC:cholesterol:DMG-PEG2000 50:10:38.5:1.5 molar
[10] = Table 3 batch, luciferase mRNA LNP prepared as Example 20

Encapsulation rate (%) [1, 10]	SMILES	Encapsulation rate (%) [1, 9]	PDI [2, 9]	Particle size (nm) [2, 9]	Zeta potential (mV) [2, 9]	PDI [2, 10]	Particle size (nm) [2, 10]	relative fluorescence intensity (%) [3]	EPO concentration [4]	death after injection (time) [5]	Encapsulation rate (%) [6]	PDI [7]	Particle size (nm) [7]	fluorescent levels of mRNA expression (FIG. 2) [8]
–	CCCCC/C=C\C/C=C\CCCCCCCCC(CCCCCCCC/C=C\C/C=C\CCCCC)OC(=O)CCCN(C)C [DLin-MC3-DMA, reference compound]	87.6%	0.19	102.3 nm	−0.03 mV	0.16	101.5 nm	100%	4.37e+06 pg/mL	≤ 18 h	90.1%	0.19	97.6 nm	–
96.8%	CCCCCCCCOCC(C)C(=O)OCCCCCN(CCO)CCCCCCCC(=O)OC(CCCCCCCC)CCCCCCCC (stereo not shown) [Compound 7]	96.1%	0.17	78.9 nm	−3.77 mV	0.15	82.9 nm	754 ± 32%	4.21e+07 pg/mL	–	97.8%	0.09	88.8 nm	superior to Lipid M and SM-102
